Measurements: ChEMBL document CHEMBL5291721, “A preclinical secondary pharmacology resource illuminates target-adverse drug reaction associations of marketed drugs” (Nat Commun, 2023)

Legend:
[1] = biological target: T1, Endothelin receptor type B (Homo sapiens, UniProt P24530)
T1 sequence (P24530 whole entry): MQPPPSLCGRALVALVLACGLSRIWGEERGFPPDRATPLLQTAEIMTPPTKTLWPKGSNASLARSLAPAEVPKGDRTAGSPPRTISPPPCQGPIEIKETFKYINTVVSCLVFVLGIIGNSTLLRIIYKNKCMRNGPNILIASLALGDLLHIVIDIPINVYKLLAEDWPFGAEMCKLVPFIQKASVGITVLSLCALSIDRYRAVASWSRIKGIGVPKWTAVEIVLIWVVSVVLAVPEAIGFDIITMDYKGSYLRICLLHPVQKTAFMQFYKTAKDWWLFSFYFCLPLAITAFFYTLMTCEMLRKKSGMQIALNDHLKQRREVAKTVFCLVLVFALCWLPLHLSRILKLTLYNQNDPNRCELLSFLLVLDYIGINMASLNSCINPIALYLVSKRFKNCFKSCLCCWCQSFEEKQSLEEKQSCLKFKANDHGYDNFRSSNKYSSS

[2] = biological target: Delta-type opioid receptor (Homo sapiens, UniProt P41143)
[3] = biological target: 3',5'-cyclic-AMP phosphodiesterase 4D (Homo sapiens, UniProt Q08499); type: functional
3',5'-cyclic-AMP phosphodiesterase 4D, sequence (Q08499 whole entry): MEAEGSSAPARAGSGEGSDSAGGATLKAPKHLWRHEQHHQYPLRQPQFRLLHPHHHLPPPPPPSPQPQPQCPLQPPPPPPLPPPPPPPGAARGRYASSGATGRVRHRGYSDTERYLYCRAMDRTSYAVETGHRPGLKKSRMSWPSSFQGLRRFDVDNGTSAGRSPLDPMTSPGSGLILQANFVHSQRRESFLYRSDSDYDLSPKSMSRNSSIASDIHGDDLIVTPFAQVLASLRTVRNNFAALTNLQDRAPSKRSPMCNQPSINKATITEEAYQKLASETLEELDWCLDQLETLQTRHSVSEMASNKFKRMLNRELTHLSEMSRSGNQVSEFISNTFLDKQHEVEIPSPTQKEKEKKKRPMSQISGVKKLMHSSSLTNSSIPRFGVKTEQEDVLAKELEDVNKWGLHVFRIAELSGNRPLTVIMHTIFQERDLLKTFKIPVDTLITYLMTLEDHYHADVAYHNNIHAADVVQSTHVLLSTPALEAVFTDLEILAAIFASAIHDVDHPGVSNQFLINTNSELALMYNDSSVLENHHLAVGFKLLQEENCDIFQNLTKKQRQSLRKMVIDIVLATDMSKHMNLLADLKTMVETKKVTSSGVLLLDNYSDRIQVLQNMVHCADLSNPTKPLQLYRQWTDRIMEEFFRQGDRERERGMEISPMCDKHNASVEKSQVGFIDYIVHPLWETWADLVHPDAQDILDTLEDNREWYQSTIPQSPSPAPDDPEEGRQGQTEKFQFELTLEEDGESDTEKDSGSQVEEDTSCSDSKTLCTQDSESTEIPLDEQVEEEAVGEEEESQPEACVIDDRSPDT

[4] = biological target: T2, Muscarinic acetylcholine receptor M2 (Homo sapiens, UniProt P08172); type: functional, cell-based
T2 sequence (P08172 whole entry): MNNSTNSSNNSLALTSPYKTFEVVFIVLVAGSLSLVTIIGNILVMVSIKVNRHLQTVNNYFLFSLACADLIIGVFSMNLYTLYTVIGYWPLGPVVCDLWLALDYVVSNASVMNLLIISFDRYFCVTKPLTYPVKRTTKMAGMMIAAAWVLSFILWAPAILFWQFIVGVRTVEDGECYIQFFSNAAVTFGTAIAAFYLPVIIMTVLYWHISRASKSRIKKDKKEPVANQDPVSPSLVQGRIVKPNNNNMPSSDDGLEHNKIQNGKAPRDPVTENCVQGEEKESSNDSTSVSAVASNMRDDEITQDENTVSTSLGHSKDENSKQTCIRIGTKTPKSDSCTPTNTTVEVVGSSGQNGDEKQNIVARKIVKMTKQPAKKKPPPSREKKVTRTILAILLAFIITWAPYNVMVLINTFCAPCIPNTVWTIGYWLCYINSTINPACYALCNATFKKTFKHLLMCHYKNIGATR

D(1A) dopamine receptor = D(1A) dopamine receptor (Homo sapiens, UniProt P21728)
[5] = biological target: Voltage-dependent L-type calcium channel subunit alpha-1C (Rattus norvegicus, UniProt P22002); type: functional
Voltage-dependent L-type calcium channel subunit alpha-1C, sequence (P22002 whole entry): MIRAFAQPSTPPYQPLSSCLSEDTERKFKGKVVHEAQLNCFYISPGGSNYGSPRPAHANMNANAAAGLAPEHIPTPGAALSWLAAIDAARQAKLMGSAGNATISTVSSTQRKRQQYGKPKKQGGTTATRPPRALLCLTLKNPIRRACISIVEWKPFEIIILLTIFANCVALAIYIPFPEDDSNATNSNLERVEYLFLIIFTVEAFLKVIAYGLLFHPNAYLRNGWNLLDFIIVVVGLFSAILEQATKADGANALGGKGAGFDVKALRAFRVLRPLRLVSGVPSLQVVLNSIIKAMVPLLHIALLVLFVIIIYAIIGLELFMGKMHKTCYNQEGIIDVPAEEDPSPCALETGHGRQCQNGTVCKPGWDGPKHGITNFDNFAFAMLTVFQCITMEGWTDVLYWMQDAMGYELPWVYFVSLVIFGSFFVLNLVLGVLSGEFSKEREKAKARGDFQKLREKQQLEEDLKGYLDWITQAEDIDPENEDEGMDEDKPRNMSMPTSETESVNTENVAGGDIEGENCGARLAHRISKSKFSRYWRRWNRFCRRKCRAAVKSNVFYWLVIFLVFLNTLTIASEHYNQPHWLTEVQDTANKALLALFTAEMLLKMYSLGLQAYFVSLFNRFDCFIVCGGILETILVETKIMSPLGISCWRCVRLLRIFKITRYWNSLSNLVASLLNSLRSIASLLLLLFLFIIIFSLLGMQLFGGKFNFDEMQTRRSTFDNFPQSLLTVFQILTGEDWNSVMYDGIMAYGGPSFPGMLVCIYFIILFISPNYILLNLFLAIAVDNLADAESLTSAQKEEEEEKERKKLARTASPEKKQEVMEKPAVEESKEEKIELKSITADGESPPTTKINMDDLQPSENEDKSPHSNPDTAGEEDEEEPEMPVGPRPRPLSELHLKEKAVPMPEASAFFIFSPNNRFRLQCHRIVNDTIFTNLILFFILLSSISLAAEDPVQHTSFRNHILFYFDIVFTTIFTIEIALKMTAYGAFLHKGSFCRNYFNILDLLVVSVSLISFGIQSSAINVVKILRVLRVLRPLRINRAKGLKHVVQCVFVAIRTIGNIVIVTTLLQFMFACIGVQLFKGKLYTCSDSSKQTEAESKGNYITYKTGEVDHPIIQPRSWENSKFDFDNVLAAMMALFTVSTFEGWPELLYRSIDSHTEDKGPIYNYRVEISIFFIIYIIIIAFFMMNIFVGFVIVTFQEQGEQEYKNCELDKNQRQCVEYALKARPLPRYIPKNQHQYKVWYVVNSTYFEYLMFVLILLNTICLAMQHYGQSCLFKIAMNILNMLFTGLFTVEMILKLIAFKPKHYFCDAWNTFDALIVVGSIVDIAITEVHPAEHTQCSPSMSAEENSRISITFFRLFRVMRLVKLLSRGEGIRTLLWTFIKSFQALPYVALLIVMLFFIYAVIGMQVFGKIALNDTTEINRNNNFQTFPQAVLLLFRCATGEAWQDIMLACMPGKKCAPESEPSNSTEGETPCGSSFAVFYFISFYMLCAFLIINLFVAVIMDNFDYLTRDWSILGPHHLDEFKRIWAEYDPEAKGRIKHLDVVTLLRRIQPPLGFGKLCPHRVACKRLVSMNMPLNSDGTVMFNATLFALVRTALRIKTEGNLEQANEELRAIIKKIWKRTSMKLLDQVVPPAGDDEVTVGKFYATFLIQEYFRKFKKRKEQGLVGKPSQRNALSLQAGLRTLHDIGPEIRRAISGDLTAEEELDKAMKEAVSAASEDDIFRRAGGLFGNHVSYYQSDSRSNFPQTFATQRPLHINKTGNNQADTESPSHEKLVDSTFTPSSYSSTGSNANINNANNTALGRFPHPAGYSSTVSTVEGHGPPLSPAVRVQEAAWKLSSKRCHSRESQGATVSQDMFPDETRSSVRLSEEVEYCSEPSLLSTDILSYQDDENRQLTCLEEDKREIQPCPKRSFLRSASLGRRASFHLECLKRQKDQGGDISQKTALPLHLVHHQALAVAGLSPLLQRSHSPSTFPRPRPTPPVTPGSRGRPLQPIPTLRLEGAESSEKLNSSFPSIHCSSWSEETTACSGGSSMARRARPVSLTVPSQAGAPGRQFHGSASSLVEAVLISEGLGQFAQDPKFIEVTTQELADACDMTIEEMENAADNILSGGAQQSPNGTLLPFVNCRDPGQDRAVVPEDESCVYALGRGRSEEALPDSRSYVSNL

[6] = biological target: T3, Corticotropin-releasing factor receptor 1 (Homo sapiens, UniProt P34998)
T3 sequence (P34998 whole entry): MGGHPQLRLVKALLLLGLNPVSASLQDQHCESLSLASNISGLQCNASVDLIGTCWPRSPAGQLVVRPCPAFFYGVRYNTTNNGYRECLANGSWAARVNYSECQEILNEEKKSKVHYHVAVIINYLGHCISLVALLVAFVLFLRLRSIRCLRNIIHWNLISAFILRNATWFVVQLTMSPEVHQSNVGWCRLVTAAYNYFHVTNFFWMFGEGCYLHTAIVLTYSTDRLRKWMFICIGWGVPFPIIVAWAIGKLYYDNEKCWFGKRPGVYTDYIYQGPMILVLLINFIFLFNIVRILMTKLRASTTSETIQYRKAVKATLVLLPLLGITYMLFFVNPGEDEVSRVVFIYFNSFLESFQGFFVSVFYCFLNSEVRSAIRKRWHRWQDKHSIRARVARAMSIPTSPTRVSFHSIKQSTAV

Motilin receptor = Motilin receptor (Homo sapiens, UniProt O43193)
[7] = biological target: 5-hydroxytryptamine receptor 2A (Homo sapiens, UniProt P28223); type: functional, cell-based
[8] = biological target: T4, Gamma-aminobutyric acid receptor subunit alpha-1/alpha-2/beta-2/gamma-2 (Homo sapiens, UniProt P14867+P18507+P47869+P47870); type: functional, cell-based
T4 sequence (P14867 whole entry): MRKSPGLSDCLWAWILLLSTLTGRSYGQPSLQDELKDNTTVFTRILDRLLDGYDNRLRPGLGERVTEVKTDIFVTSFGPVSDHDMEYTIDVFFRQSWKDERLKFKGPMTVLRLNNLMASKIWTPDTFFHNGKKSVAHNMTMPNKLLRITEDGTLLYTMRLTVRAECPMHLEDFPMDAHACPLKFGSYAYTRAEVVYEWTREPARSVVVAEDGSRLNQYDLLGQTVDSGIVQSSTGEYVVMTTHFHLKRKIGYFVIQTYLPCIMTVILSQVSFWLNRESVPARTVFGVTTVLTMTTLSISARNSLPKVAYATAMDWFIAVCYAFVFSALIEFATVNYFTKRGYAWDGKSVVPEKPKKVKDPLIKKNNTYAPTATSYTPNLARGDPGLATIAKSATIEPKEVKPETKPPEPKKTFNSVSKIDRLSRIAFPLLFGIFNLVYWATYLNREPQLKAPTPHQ
T4 sequence (P47870 whole entry): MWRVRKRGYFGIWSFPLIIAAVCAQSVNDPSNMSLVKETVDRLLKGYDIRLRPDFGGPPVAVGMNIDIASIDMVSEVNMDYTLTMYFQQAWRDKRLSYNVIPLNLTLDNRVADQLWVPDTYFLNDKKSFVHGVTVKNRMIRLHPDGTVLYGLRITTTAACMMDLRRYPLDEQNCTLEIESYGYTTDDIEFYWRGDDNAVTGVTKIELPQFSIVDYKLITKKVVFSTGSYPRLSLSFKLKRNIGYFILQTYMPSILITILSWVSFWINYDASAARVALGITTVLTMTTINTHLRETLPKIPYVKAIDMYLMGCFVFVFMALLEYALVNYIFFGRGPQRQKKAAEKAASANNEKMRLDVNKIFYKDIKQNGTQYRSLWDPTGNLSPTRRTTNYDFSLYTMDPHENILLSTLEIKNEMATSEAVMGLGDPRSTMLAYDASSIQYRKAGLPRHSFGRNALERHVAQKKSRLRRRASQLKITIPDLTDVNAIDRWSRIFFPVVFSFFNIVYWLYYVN
T4 sequence (P18507 whole entry): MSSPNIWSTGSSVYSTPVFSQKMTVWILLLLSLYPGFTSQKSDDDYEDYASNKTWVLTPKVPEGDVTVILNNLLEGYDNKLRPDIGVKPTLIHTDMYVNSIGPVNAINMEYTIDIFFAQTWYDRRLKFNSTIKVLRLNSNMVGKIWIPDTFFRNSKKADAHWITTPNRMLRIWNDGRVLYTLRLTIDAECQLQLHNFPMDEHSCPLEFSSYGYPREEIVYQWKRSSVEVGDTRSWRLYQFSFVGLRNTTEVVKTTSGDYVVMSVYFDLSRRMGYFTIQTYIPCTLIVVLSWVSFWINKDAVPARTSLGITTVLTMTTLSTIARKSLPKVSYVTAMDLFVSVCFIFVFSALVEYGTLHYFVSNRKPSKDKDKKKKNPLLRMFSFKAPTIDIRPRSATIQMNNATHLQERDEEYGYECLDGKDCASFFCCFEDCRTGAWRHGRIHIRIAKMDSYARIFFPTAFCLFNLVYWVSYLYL
T4 sequence (P47869 whole entry): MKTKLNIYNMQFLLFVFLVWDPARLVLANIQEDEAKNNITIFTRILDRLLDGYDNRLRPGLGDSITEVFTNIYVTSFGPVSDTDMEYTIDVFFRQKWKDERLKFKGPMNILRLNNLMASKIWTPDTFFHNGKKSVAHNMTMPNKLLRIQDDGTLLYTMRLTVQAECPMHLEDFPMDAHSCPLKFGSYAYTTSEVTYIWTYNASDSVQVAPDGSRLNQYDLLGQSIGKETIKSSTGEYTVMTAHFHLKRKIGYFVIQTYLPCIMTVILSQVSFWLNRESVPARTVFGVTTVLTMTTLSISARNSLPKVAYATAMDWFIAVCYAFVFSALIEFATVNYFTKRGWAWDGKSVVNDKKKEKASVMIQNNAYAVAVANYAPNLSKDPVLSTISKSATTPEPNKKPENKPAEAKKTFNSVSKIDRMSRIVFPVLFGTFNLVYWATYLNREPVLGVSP

Progesterone receptor = biological target: T5, Progesterone receptor (Homo sapiens, UniProt P06401); type: functional
T5 sequence (P06401 whole entry): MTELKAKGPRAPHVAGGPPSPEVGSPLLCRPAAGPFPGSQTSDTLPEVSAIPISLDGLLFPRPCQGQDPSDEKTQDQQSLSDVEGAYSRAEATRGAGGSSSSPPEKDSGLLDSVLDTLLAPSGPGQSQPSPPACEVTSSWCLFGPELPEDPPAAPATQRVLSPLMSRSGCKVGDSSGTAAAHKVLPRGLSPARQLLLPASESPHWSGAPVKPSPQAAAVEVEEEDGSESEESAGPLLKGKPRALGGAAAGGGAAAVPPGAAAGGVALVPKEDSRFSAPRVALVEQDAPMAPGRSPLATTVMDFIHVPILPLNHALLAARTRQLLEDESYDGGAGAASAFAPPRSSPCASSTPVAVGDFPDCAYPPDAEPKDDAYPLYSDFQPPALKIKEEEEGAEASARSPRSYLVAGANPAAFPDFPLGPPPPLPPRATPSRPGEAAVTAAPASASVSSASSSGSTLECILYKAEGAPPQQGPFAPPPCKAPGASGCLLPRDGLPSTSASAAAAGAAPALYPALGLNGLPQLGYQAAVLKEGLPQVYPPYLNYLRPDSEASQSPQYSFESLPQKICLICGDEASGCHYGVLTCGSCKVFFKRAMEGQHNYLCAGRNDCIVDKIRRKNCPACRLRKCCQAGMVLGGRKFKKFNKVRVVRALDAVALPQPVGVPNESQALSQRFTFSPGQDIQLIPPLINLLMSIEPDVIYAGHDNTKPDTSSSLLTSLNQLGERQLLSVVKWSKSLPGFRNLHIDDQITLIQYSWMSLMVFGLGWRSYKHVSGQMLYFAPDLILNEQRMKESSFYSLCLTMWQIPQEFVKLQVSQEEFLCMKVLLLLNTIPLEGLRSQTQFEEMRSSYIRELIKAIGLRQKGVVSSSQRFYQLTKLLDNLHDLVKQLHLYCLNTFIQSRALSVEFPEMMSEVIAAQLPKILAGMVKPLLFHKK

[9] = biological target: T4, Gamma-aminobutyric acid receptor subunit alpha-1/alpha-2/beta-2/gamma-2; type: functional, cell-based; remark: listed apart in the source
Also: assay procedure not described here.

Question: `COc1ccnc(C[S+]([O-])c2nc3ccc(OC(F)F)cc3[nH]2)c1OC` (stereo not drawn) [PANTOPRAZOLE] was tested. Which AC50 [1] did it give?
Answer: Its AC50 is > 30 µM.

Question: And the AC50 [2]?
Answer: Its AC50 is > 30 µM.

Question: And the AC50 [3]?
Answer: The AC50 was > 30 µM.

Question: What about the AC50 [4] of the same molecule?
Answer: The AC50 was > 10 µM.

Question: What about the AC50 (D(1A) dopamine receptor) of the same molecule?
Answer: Its AC50 is > 10 µM.

Question: And the AC50 [5]?
Answer: Its AC50 is > 10 µM.

Question: And the AC50 [6]?
Answer: The AC50 was > 30 µM.

Question: What about the AC50 (Motilin receptor) of the same molecule?
Answer: The AC50 was > 10 µM.

Question: How did the AC50 [1] turn out when `CNC[C@H](O)c1cccc(O)c1` [PHENYLEPHRINE] was run?
Answer: The AC50 was > 30 µM.

Question: What about the AC50 [2] of the same molecule?
Answer: The AC50 was > 10 µM.

Question: What about the AC50 [3] of the same molecule?
Answer: The AC50 was > 30 µM.

Question: What about the AC50 [4] of the same molecule?
Answer: The AC50 was > 10 µM.

Question: What about the AC50 (D(1A) dopamine receptor) of the same molecule?
Answer: The AC50 was > 10 µM.

Question: What about the AC50 [5] of the same molecule?
Answer: Its AC50 is > 10 µM.

Question: And the AC50 [6]?
Answer: Its AC50 is > 30 µM.

Question: And the AC50 [7]?
Answer: Its AC50 is > 30 µM.

Question: And the AC50 (Motilin receptor)?
Answer: The AC50 was > 10 µM.

Question: How did the AC50 [1] turn out when `CC(C)C[C@H](CN)CC(=O)O` [PREGABALIN] was run?
Answer: The AC50 was > 30 µM.

Question: What about the AC50 [2] of the same molecule?
Answer: Its AC50 is > 30 µM.

Question: What about the AC50 [8] of the same molecule?
Answer: Its AC50 is > 30 µM.

Question: And the AC50 [3]?
Answer: Its AC50 is > 30 µM.

Question: And the AC50 [4]?
Answer: The AC50 was > 30 µM.

Question: And the AC50 (Progesterone receptor)?
Answer: Its AC50 is > 30 µM.

Question: And the AC50 [9]?
Answer: The AC50 was > 30 µM.

Question: And the AC50 [5]?
Answer: Its AC50 is > 30 µM.

Question: What about the AC50 [6] of the same molecule?
Answer: Its AC50 is > 30 µM.

Question: What about the AC50 [7] of the same molecule?
Answer: Its AC50 is > 30 µM.

Question: What about the AC50 (Motilin receptor) of the same molecule?
Answer: The AC50 was > 30 µM.

Question: What does the source list for `CCOc1cc(CC(=O)N[C@@H](CC(C)C)c2ccccc2N2CCCCC2)ccc1C(=O)O` [REPAGLINIDE]?
Answer: AC50 [2]: > 30 µM; AC50 [8]: > 30 µM; AC50 [3]: 9.6 µM; AC50 [4]: > 30 µM; AC50 (Progesterone receptor): > 30 µM; AC50 [9]: > 30 µM; AC50 [7]: > 30 µM; AC50 (Motilin receptor): > 30 µM

Question: Which results are given for `CCCN(CCC)CCc1cccc2c1CC(=O)N2` [ROPINIROLE]?
Answer: AC50 [1]: > 30 µM; AC50 [2]: > 30 µM; AC50 [8]: > 30 µM; AC50 [3]: > 30 µM; AC50 [4]: 23 µM; AC50 (D(1A) dopamine receptor): > 10 µM; AC50 (Progesterone receptor): > 30 µM; AC50 [9]: > 30 µM; AC50 [5]: > 10 µM; AC50 [6]: > 30 µM; AC50 [7]: 12 µM; AC50 (Motilin receptor): > 30 µM

Question: Which results are given for `CCCN(CCc1cccs1)[C@H]1CCc2c(O)cccc2C1` [ROTIGOTINE]?
Answer: AC50 [2]: 25 µM; AC50 [8]: > 30 µM; AC50 [3]: > 30 µM; AC50 [4]: > 10 µM; AC50 (Progesterone receptor): > 30 µM; AC50 [9]: > 30 µM; AC50 [7]: 0.46 µM; AC50 (Motilin receptor): > 30 µM

Question: `CC(=O)S[C@@H]1CC2=CC(=O)CC[C@]2(C)[C@H]2CC[C@@]3(C)[C@@H](CC[C@@]34CCC(=O)O4)[C@H]12` [SPIRONOLACTONE] was tested. Which AC50 [1] did it give?
Answer: The AC50 was > 30 µM.

Question: And the AC50 [2]?
Answer: The AC50 was > 30 µM.

Question: And the AC50 [8]?
Answer: Its AC50 is > 30 µM.

Question: And the AC50 [3]?
Answer: The AC50 was > 30 µM.

Question: And the AC50 [4]?
Answer: Its AC50 is 26 µM.

Question: What about the AC50 (D(1A) dopamine receptor) of the same molecule?
Answer: Its AC50 is > 10 µM.

Question: And the AC50 [9]?
Answer: The AC50 was > 30 µM.

Question: What about the AC50 [5] of the same molecule?
Answer: The AC50 was > 10 µM.

Question: What about the AC50 [6] of the same molecule?
Answer: The AC50 was > 30 µM.

Question: What about the AC50 (Motilin receptor) of the same molecule?
Answer: Its AC50 is > 30 µM.

Question: `CCCCNc1ccc(C(=O)OCCN(C)C)cc1` [TETRACAINE] was tested. Which AC50 [1] did it give?
Answer: The AC50 was > 30 µM.

Question: What about the AC50 [2] of the same molecule?
Answer: The AC50 was > 10 µM.

Question: What about the AC50 [3] of the same molecule?
Answer: Its AC50 is > 30 µM.

Question: What about the AC50 [4] of the same molecule?
Answer: Its AC50 is > 10 µM.

Question: And the AC50 (D(1A) dopamine receptor)?
Answer: Its AC50 is > 10 µM.

Question: And the AC50 [5]?
Answer: Its AC50 is > 10 µM.

Question: And the AC50 [6]?
Answer: The AC50 was > 30 µM.

Question: And the AC50 (Motilin receptor)?
Answer: Its AC50 is > 10 µM.

Question: With `CN1CCN(CCCN2c3ccccc3Sc3ccc(S(=O)(=O)N(C)C)cc32)CC1` [THIOPROPERAZINE] as the molecule, how does the AC50 [2] read?
Answer: Its AC50 is 29 µM.

Question: What about the AC50 [8] of the same molecule?
Answer: The AC50 was > 30 µM.

Question: What about the AC50 [3] of the same molecule?
Answer: Its AC50 is 13 µM.

Question: What about the AC50 [4] of the same molecule?
Answer: Its AC50 is 12 µM.

Question: And the AC50 [9]?
Answer: Its AC50 is > 30 µM.

Question: What about the AC50 [7] of the same molecule?
Answer: Its AC50 is > 30 µM.

Question: How did the AC50 [1] turn out when `CC1(C)O[C@@H]2[C@@H](CO[C@@]3(COS(N)(=O)=O)OC(C)(C)O[C@@H]23)O1` [TOPIRAMATE] was run?
Answer: The AC50 was > 30 µM.

Question: What about the AC50 [2] of the same molecule?
Answer: The AC50 was > 10 µM.

Question: What about the AC50 [3] of the same molecule?
Answer: Its AC50 is > 30 µM.

Question: What about the AC50 [4] of the same molecule?
Answer: Its AC50 is > 10 µM.

Question: And the AC50 (D(1A) dopamine receptor)?
Answer: Its AC50 is > 10 µM.

Question: And the AC50 [5]?
Answer: Its AC50 is > 10 µM.

Question: What about the AC50 [6] of the same molecule?
Answer: Its AC50 is > 30 µM.

Question: And the AC50 (Motilin receptor)?
Answer: The AC50 was > 10 µM.
